Patent US4088772A, “Methanodibenzocycloheptapyrroles” (E. I. Du Pont de Nemours and Company, priority 1975, dated 1978)
Read-outs that look alike come from different tables or passages of the source.

Key:
in vivo = conditions: mouse, in vivo, po
female white mice = assay: animal or person; conditions: Mus musculus, po, oral, mice
[1] = tested on: phenylquinone-induced writhing; assay: Phenylquinone writhing test (analgesia); type: in vivo, mouse (Carworth CF1 S female); conditions: Mus musculus
Source text: This mouse test is predictive of analgesic response in humans. [E. Siegmund, R. Cadmus and G. Lee, Proc. Soc.
ED50 values were obtained graphically from the data.

[2] = read-out: Catatonia ED50, Table 1
[3] = read-out: Exploratory Loss Visual ED50, Table 1
[4] = read-out: Muscle Tone ED50, Table 1
[5] = read-out: Reflexes Grip ED50, Table 1
[6] = read-out: Reflexes Lift ED50, Table 1
[7] = read-out: Reflexes Pinna ED50, Table 1

| SMILES | ED50 (in vivo) [mg/kg] | LD50 at 24 h (in vivo) [mg/kg] | ED50 (female white mice; [2]) [mg/kg] | ED50 (female white mice; [3]) [mg/kg] | ED50 (female white mice; [4]) [mg/kg] | ED50 (female white mice; read-out: Ptosis ED50, Table 1) [mg/kg] | ED50 (female white mice; [5]) [mg/kg] | ED50 (female white mice; [6]) [mg/kg] | ED50 (female white mice; [7]) [mg/kg] | ED50 ([1]; po, Table 1, mice) [mg/kg] | ED50 (in vivo; Tremors ED50, Table 1, mice) [mg/kg] | ED50 ([1]; Table 1, oral, mice) [mg/kg] |
| --- | --- | --- | --- | --- | --- | --- | --- | --- | --- | --- | --- | --- |
| [O-][N+]1(CC2CCCC2)CC2c3ccccc3C3CC2(C1)c1ccccc13 (stereo not shown) [Cyclopentylmethyl-N-oxide, N-Oxide of 2-cyclopentylmethyl-2,3,8,12b-tetrahydro-1H-3a,8-methanodibenzo[3,4:6,7]cyclohepta[1,2-c]-pyrrole] | > 324 | > 324 | 36 | 12 | 12 | ≤ 4 | > 324 | 20 | 7 | 24 | – | – |
| CN1CC2c3ccccc3C3CC2(C1)c1ccccc13 (stereo not shown) [Example 1, 2-Methyl-2,3,8,12b-tetrahydro-1H-3a,8-methanodibenzo[3,4:6,7]cyclohepta[1,2-c]pyrrole] | – | 150 | 30 | 50 | 100 | 50 | 150 | 30 | 30 | – | 30 | 5.1 |
| c1ccc2c(c1)C1CC3(CN(CC4CC4)CC23)c2ccccc21 (stereo not shown) [Example 6, 2-Cyclopropylmethyl-2,3,8,12b-tetrahydro-1H-3a,8-methanodibenzo[3,4:6,7]cyclohepta[1,2-c]pyrrole] | – | 300 | 20 | 20 | 12 | 20 | 100 | 20 | 7 | – | 100 | 4.5 |
| C=CCN1CC2c3ccccc3C3CC2(C1)c1ccccc13 (stereo not shown) [Example 10, 2-Allyl-2,3,8,12b-tetrahydro-1H-3a,8-methanodibenzo-[3,4:6,7]cyclohepta[1,2-c]pyrrole] | – | > 324 | 5 | 4.5 | 3.2 | < 3 | 150 | 6 | 4 | – | 187 | 1.9 |
| CCOC(=O)CCCN1CC2c3ccccc3C3CC2(C1)c1ccccc13 (stereo not shown) [Example 11, Ethyl 2,3,8,12b-Tetrahydro-1H-3a,8-methanodibenzo-[3,4:6,7]cyclohepta[1,2-c]pyrrole-2-butyrate] | > 324 | > 324 | 100 | 100 | 200 | 100 | > 324 | > 324 | 100 | 26 | – | – |
| CCN1CC2c3ccccc3C3CC2(C1)c1ccccc13 (stereo not shown) [Example 12, 2-Ethyl-2,3,8,12b-tetrahydro-1H-3a,8-methanodibenzo[3,4:6,7]cyclohepta[1,2-c]pyrrole] | – | 200 | 12 | 20 | 36 | 12 | 100 | 12 | 12 | – | 200 | 4.3 |
| CCCCN1CC2c3ccccc3C3CC2(C1)c1ccccc13 (stereo not shown) [Example 13, 2-n-Butyl-2,3,8,12b-tetrahydro-1H-3a,8-methanodibenzo[3,4:6,7]cyclohepta[1,2-c]pyrrole] | – | > 324 | 12 | 12 | 12 | 7 | 200 | 7 | ≤ 4 | – | 300 | 10.5 |
| CCCCCCCCN1CC2c3ccccc3C3CC2(C1)c1ccccc13 (stereo not shown) [Example 16, 2-n-Octyl-2,3,8,12b-tetrahydro-1H-3a,8-methanodibenzo[3,4:6,7]cyclohepta[1,2-c]pyrrole] | > 324 | > 324 | – | 20 | – | – | > 324 | 20 | 20 | 12 | – | – |
| CCC(CC)CN1CC2c3ccccc3C3CC2(C1)c1ccccc13 (stereo not shown) [Example 17, 2-(2-Ethylbutyl)-2,3,8,12b-tetrahydro-1H-3a,8-methanodibenzo[3,4:6,7]cyclohepta[1,2-c]pyrrole] | > 324 | > 324 | 36 | 200 | 100 | 100 | > 324 | 200 | 200 | 48 | – | – |
| C#CCN1CC2c3ccccc3C3CC2(C1)c1ccccc13 (stereo not shown) [Example 18, 2-Propargyl-2,3,8,12b-tetrahydro-1H-3a,8-methanodibenzo[3,4:6,7]cyclohepta[1,2-c]pyrrole] | – | > 324 | 100 | 200 | 300 | 200 | > 324 | 200 | > 324 | – | > 324 | > 135 |
